From US20120058989A1, “ANTIBACTERIAL FLUOROQUINOLONE ANALOGS” (Achaogen, Inc., priority 2008, published 2012)
Values belong to the compound of their own block, whether it stands above or below them.

Key:
Test in all cases: MIC, CLSI broth microdilution
Assay type in all cases: cell-based
[1] = test system: A. baumannii AABA1009 (Fluoroquinolone-resistant); details: Table 2
Method: (§1) Minimum inhibitory concentrations (MIC) were determined by reference Clinical and Laboratory Standards Institute (CLSI) broth microdilution methods per M7-A7 [2006]. Quality control ranges utilizing E. coli ATCC 25922, P. aeruginosa ATCC 27853 and S. aureus ATCC 29213, and interpretive criteria for comparator agents were as published in CLSI M100-S17 [2007]. Briefly, serial two-fold dilutions of the test compounds were prepared at 2× concentration in Mueller Hinton Broth. The compound dilutions were mixed in 96-well assay plates in a 1:1 ratio with bacterial inoculum. The inoculum was prepared by suspension of a colony from an agar plate that was prepared the previous day. Bacteria were suspended in sterile saline and added to each assay plate to obtain a final concentration of 5×10^5 CFU/mL. The plates were incubated at 35° C. for 20 hours in ambient air.

[2] = test system: A. baumannii AABA1065 (Fluoroquinolone-susceptible); details: Table 2
Method: as §1

[3] = test system: E. coli AECO001 (Fluoroquinolone susceptible, ATCC25922); details: Table 2, 35° C., 20 hours
Method: as §1

[4] = test system: E. coli AECO066 (Fluoroquinolone-resistant); details: Table 2
Method: as §1

[5] = test system: P. aeruginosa APAE001 (Fluoroquinolone-susceptible, ATCC27853); details: Table 2
Method: as §1

[6] = test system: P. aeruginosa APAE054 (Fluoroquinolone-resistant); details: Table 2
Method: as §1

[7] = test system: S. aureus ASAU001 (Fluoroquinolone-susceptible, ATCC29213); details: Table 2
Method: as §1

[8] = test system: S. aureus ASAU1031 (Fluoroquinolone-resistant); details: Table 2
Method: as §1

[9] = test system: S. pneumoniae ASPN001 (Fluoroquinolone-susceptible, ATCC49619); details: Table 2
Method: as §1

[10] = test system: S. pneumoniae ASPN1027 (Fluoroquinolone-resistant); details: Table 2
Method: as §1

MIC AABA 1009 [1]: C (MIC's of greater than 8.0 μg/mL = C) | MIC AECO 066 [4]: C (MIC's of greater than 8.0 μg/mL = C) | MIC APAE 001 [5]: C (MIC's of greater than 8.0 μg/mL = C) | MIC APAE 054 [6]: C (MIC's of greater than 8.0 μg/mL = C) | MIC ASAU 1031 [8]: C (MIC's of greater than 8.0 μg/mL = C) | MIC ASPN 001 [9]: C (MIC's of greater than 8.0 μg/mL = C) | MIC ASPN 1027 [10]: C (MIC's of greater than 8.0 μg/mL = C)
SMILES: O=C(O)c1cn(C2CC2)c2c3c(c(F)cc2c1=O)N1CCCC1C[S+]([O-])C3 (stereo not drawn) [8/14, 13-Cyclopropyl-8-fluoro-10-oxo-3a,4,5,6,10,13-hexahydro-1H,3H-pyrrolo[2′,1′:3,4][1,4]thiazepino[5,6-h]quinoline-1′-carboxylic acid 2-oxide]
MIC AABA 1065 [2]: B (MIC's of greater than 1.0 μg/mL to 8.0 μg/mL = B) | MIC AECO 001 [3]: B (MIC's of greater than 1.0 μg/mL to 8.0 μg/mL = B) | MIC ASAU 001 [7]: B (MIC's of greater than 1.0 μg/mL to 8.0 μg/mL = B)

MIC AABA 1009 [1]: C (MIC's of greater than 8.0 μg/mL = C) | MIC AECO 001 [3]: A (MIC's of 1.0 μg/mL or less = A) | MIC AECO 066 [4]: C (MIC's of greater than 8.0 μg/mL = C) | MIC APAE 054 [6]: C (MIC's of greater than 8.0 μg/mL = C) | MIC ASAU 001 [7]: A (MIC's of 1.0 μg/mL or less = A) | MIC ASPN 001 [9]: A (MIC's of 1.0 μg/mL or less = A)
SMILES: O=C(O)c1cn(C2CC2)c2c3c(c(F)cc2c1=O)N1CCCC1C(=O)NC3 (stereo not drawn) [10/6, 13-Cyclopropyl-8-fluoro-3,10-dioxo-2,3,3a,4,5,6,10,13-octahydro-1H-pyrrolo[2′,1′:3,4][1,4]diazepino[5,6-h]quinoline-1′-carboxylic acid]
MIC AABA 1065 [2]: B (MIC's of greater than 1.0 μg/mL to 8.0 μg/mL = B) | MIC APAE 001 [5]: B (MIC's of greater than 1.0 μg/mL to 8.0 μg/mL = B) | MIC ASAU 1031 [8]: B (MIC's of greater than 1.0 μg/mL to 8.0 μg/mL = B) | MIC ASPN 1027 [10]: B (MIC's of greater than 1.0 μg/mL to 8.0 μg/mL = B)

MIC AABA 1009 [1]: C (MIC's of greater than 8.0 μg/mL = C) | MIC AABA 1065 [2]: A (MIC's of 1.0 μg/mL or less = A) | MIC AECO 001 [3]: A (MIC's of 1.0 μg/mL or less = A) | MIC AECO 066 [4]: C (MIC's of greater than 8.0 μg/mL = C) | MIC APAE 054 [6]: C (MIC's of greater than 8.0 μg/mL = C) | MIC ASAU 001 [7]: A (MIC's of 1.0 μg/mL or less = A) | MIC ASAU 1031 [8]: C (MIC's of greater than 8.0 μg/mL = C) | MIC ASPN 1027 [10]: C (MIC's of greater than 8.0 μg/mL = C)
SMILES: O=C(O)C(F)(F)F.O=C(O)c1cn(C2CC2)c2c3c(c(F)cc2c1=O)N1CCCC1CNC3 (stereo not drawn) [13/5, 13-Cyclopropyl-8-fluoro-10-oxo-2,3,3a,4,5,6,10,13-octahydro-1H-pyrrolo[2′,1′:3,4][1,4]diazepino[5,6-h]quinoline-11-carboxylic acid trifluoroacetate]
MIC APAE 001 [5]: B (MIC's of greater than 1.0 μg/mL to 8.0 μg/mL = B) | MIC ASPN 001 [9]: B (MIC's of greater than 1.0 μg/mL to 8.0 μg/mL = B)

MIC AABA 1009 [1]: C (MIC's of greater than 8.0 μg/mL = C) | MIC AABA 1065 [2]: C (MIC's of greater than 8.0 μg/mL = C) | MIC AECO 066 [4]: C (MIC's of greater than 8.0 μg/mL = C) | MIC APAE 001 [5]: C (MIC's of greater than 8.0 μg/mL = C) | MIC APAE 054 [6]: C (MIC's of greater than 8.0 μg/mL = C) | MIC ASAU 001 [7]: C (MIC's of greater than 8.0 μg/mL = C) | MIC ASAU 1031 [8]: C (MIC's of greater than 8.0 μg/mL = C) | MIC ASPN 001 [9]: C (MIC's of greater than 8.0 μg/mL = C) | MIC ASPN 1027 [10]: C (MIC's of greater than 8.0 μg/mL = C)
SMILES: CC(=O)N1Cc2c(c(F)cc3c(=O)c(C(=O)O)cn(C4CC4)c23)N2CCCC2C1 (stereo not drawn) [14/4, 2-Acetyl-13-cyclopropyl-8-fluoro-10-oxo-2,3,3a,4,5,6,10,13-octahydro-1H-pyrrolo[2′,1′:3,4][1,4]diazepino[5,6-h]quinoline-11-carboxylic acid]
MIC AECO 001 [3]: B (MIC's of greater than 1.0 μg/mL to 8.0 μg/mL = B)

The remaining lines, values behind:

SMILES: O=C(O)c1cn(C2CC2)c2c3c(c(F)cc2c1=O)N1CCCC1CSC3 (stereo not drawn) [8/10, 13-Cyclopropyl-8-fluoro-10-oxo-3a,4,5,6,10,13-hexahydro-1H,3H-pyrrolo[2′,1′:3,4][1,4]thiazepino[5,6-h]quinoline-11-carboxylic acid]
MIC AABA 1009 [1]: C (MIC's of greater than 8.0 μg/mL = C) | MIC AABA 1065 [2]: B (MIC's of greater than 1.0 μg/mL to 8.0 μg/mL = B) | MIC AECO 001 [3]: B (MIC's of greater than 1.0 μg/mL to 8.0 μg/mL = B) | MIC AECO 066 [4]: C (MIC's of greater than 8.0 μg/mL = C) | MIC APAE 001 [5]: C (MIC's of greater than 8.0 μg/mL = C) | MIC APAE 054 [6]: C (MIC's of greater than 8.0 μg/mL = C) | MIC ASAU 001 [7]: A (MIC's of 1.0 μg/mL or less = A) | MIC ASAU 1031 [8]: C (MIC's of greater than 8.0 μg/mL = C) | MIC ASPN 001 [9]: C (MIC's of greater than 8.0 μg/mL = C) | MIC ASPN 1027 [10]: C (MIC's of greater than 8.0 μg/mL = C)

SMILES: O=C(O)c1cn(C2CC2)c2c3c(c(F)cc2c1=O)N1CCCC1CS(=O)(=O)C3 (stereo not drawn) [8/12, 13-Cyclopropyl-8-fluoro-10-oxo-3a,4,5,6,10,13-hexahydro-1H,3H-pyrrolo[2′,1′:3,4][1,4]thiazepino[5,6-h]quinoline-11-carboxylic acid 2,2-dioxide]
MIC AABA 1009 [1]: C (MIC's of greater than 8.0 μg/mL = C) | MIC AABA 1065 [2]: C (MIC's of greater than 8.0 μg/mL = C) | MIC AECO 001 [3]: C (MIC's of greater than 8.0 μg/mL = C) | MIC AECO 066 [4]: C (MIC's of greater than 8.0 μg/mL = C) | MIC APAE 001 [5]: C (MIC's of greater than 8.0 μg/mL = C) | MIC APAE 054 [6]: C (MIC's of greater than 8.0 μg/mL = C) | MIC ASAU 001 [7]: B (MIC's of greater than 1.0 μg/mL to 8.0 μg/mL = B) | MIC ASAU 1031 [8]: C (MIC's of greater than 8.0 μg/mL = C) | MIC ASPN 001 [9]: C (MIC's of greater than 8.0 μg/mL = C) | MIC ASPN 1027 [10]: C (MIC's of greater than 8.0 μg/mL = C)

SMILES: O=C(O)c1cn(C2CC2)c2c3c(c(F)cc2c1=O)N1CCCC1COC3 (stereo not drawn) [11/8, 13-Cyclopropyl-8-fluoro-10-oxo-3a,4,5,6,10,13-hexahydro-1H,3H-pyrrolo[2′,1′:3,4][1,4]oxazepino[5,6-h]quinoline-11-carboxylic acid]
MIC AABA 1009 [1]: C (MIC's of greater than 8.0 μg/mL = C) | MIC AABA 1065 [2]: A (MIC's of 1.0 μg/mL or less = A) | MIC AECO 001 [3]: A (MIC's of 1.0 μg/mL or less = A) | MIC AECO 066 [4]: C (MIC's of greater than 8.0 μg/mL = C) | MIC APAE 001 [5]: C (MIC's of greater than 8.0 μg/mL = C) | MIC APAE 054 [6]: C (MIC's of greater than 8.0 μg/mL = C) | MIC ASAU 001 [7]: A (MIC's of 1.0 μg/mL or less = A) | MIC ASAU 1031 [8]: B (MIC's of greater than 1.0 μg/mL to 8.0 μg/mL = B) | MIC ASPN 001 [9]: A (MIC's of 1.0 μg/mL or less = A) | MIC ASPN 1027 [10]: C (MIC's of greater than 8.0 μg/mL = C)

SMILES: O=C(O)c1cn(C2CC2)c2c3c(c(F)cc2c1=O)N1CCCC1CN=C3 (stereo not drawn) [12/4, 13-Cyclopropyl-8-fluoro-10-oxo-3a,4,5,6,10,13-hexahydro-3H-pyrrolo[2′,1′:3,4][1,4]diazepino[5,6-h]quinoline-11-carboxylic acid]
MIC AABA 1009 [1]: C (MIC's of greater than 8.0 μg/mL = C) | MIC AABA 1065 [2]: C (MIC's of greater than 8.0 μg/mL = C) | MIC AECO 001 [3]: A (MIC's of 1.0 μg/mL or less = A) | MIC AECO 066 [4]: C (MIC's of greater than 8.0 μg/mL = C) | MIC APAE 001 [5]: B (MIC's of greater than 1.0 μg/mL to 8.0 μg/mL = B) | MIC APAE 054 [6]: C (MIC's of greater than 8.0 μg/mL = C) | MIC ASAU 001 [7]: A (MIC's of 1.0 μg/mL or less = A) | MIC ASAU 1031 [8]: C (MIC's of greater than 8.0 μg/mL = C) | MIC ASPN 001 [9]: B (MIC's of greater than 1.0 μg/mL to 8.0 μg/mL = B) | MIC ASPN 1027 [10]: C (MIC's of greater than 8.0 μg/mL = C)

SMILES: CN1Cc2c(c(F)cc3c(=O)c(C(=O)O)cn(C4CC4)c23)N2CCCC2C1.O=C(O)C(F)(F)F (stereo not drawn) [15/3, 13-Cyclopropyl-8-fluoro-2-methyl-10-oxo-2,3,3a,4,5,6,10,13-octahydro-1H-pyrrolo[2′,1′:3,4][1,4]diazepino[5,6-h]quinoline-11-carboxylic acid trifluoroacetate]
MIC AABA 1009 [1]: C (MIC's of greater than 8.0 μg/mL = C) | MIC AABA 1065 [2]: A (MIC's of 1.0 μg/mL or less = A) | MIC AECO 001 [3]: A (MIC's of 1.0 μg/mL or less = A) | MIC AECO 066 [4]: C (MIC's of greater than 8.0 μg/mL = C) | MIC APAE 001 [5]: C (MIC's of greater than 8.0 μg/mL = C) | MIC APAE 054 [6]: C (MIC's of greater than 8.0 μg/mL = C) | MIC ASAU 001 [7]: A (MIC's of 1.0 μg/mL or less = A) | MIC ASAU 1031 [8]: C (MIC's of greater than 8.0 μg/mL = C) | MIC ASPN 001 [9]: B (MIC's of greater than 1.0 μg/mL to 8.0 μg/mL = B) | MIC ASPN 1027 [10]: C (MIC's of greater than 8.0 μg/mL = C)
